Counter-ions that a name gives are not always drawn.
How the values were obtained:
[1] = use of CAPTISOL
[2] = system: P-gp expressing CD33(+) leukemia cells; settings: cited from earlier work

increase in water solubility with CAPTISOL [1]	Compound	reversal of resistance to Mylotarg [2]
> 5 fold	OC(COc1cccc2ncccc12)CN1CCN([C@@H]2c3ccccc3[C@@H]3[C@H](c4ccccc42)C3(F)F)CC1 (some centres unmarked) [zosuquidar trihydrochloride]	–
–	O=C(C(c1ccccc1)c1ccccc1)N1CCN(CC(O)COc2cccc3ncccc23)CC1.O=C(O)/C=C/C(=O)O (centres unmarked) [MS-209]	reverse the resistance to Mylotarg

Reference: US20070010485A1 (priority 2005, published 2007)
